From patent US20250154455A1, “BIOACTIVE AND ANTIOXIDANT SUPRAMOLECULAR POLYMER HYDROGELS FOR NEURAL CELL CULTURE” (Northwestern University, priority 2023, published 2025)

Experiment: Hydrogen peroxide remaining in solutions of PA or PEDOT-S/OH
Details: hydrogen peroxide solution, after 3 days
Description: The presence of ROS was determined using CellROX Green Reagent (ThermoFisher). Briefly, CellROX was added to cells for a final concentration of 5 μM and incubated for 30 mins at 37° C. Wells were washed 3× with PBS and fluorescence intensity was read at 485/520 nm using Cyation3. For solution studies, CellROX was added to solutions of PEDOT or PA containing 10 μM H2O2 at various time points.

Substance C16-A2G2E4GIKVAV [PA] has a peroxide still present of roughly 75%.
